Measured values as given in patent publication US20210308034A1, “PREBIOTIC COMPOSITIONS AND METHODS FOR MAINTAINING A HEALTHY SKIN MICROBIOTA” (KIMBERLY-CLARK WORLDWIDE, INC., priority 2018, published 2021).

Experiments:
Format in all cases: cell-based
[1] = test system: Corynebacterium jeikum (ATCC 33033); test: Carbohydrate Screening Test Method (Biolog phenotype microarray), Bacteria Code B; details: Commensal; carbon microarray plate, OD 600 nm, 36 hr, 33° C.; positive = more than 0.05 OD units above zero; blank cell = not utilized
In short: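 Strain from M9*2 agar was suspended in M9*1 medium, washed and inoculated into Biolog PM1/PM2 carbon plates. Carbohydrate use was scored yes/no, and growth rate and maximum yield were derived with GrowthRates 2.1, with max yields used for commensal ratios.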

[2] = test system: Staphylococcus aureus (ATCC 25904) (Newman); test: Carbohydrate Screening Test Method (Biolog phenotype microarray), Bacteria Code H; details: Pathogenic; carbon microarray plate, OD 600 nm, 36 hr, 33° C.; positive = more than 0.05 OD units above zero; blank cell = not utilized
Text: (§1) After creating desired ratios of various commensal skin bacteria in a healthy skin microbiome, 188 different carbohydrate sources were screened as the next step in determining potential prospects for skin microbiota balancing agents. The screening process was set up to determine which carbohydrate sources promoted commensal and/or pathogenic bacteria as well as to obtain individual and combinations of carbohydrate sources that could serve as microbiota balancing agents that can support or maintain the healthy proportions of commensal skin bacteria of Corynebacterium, Staphylococcus, and Micrococcus. The screening was conducted utilizing Biolog phenotype microarray plates (Hayward, Calif.). Table 1 provides a coded list of the commensal and pathogenic skin bacteria that the carbohydrates were screened against.
(§2) Table 2 provides the results of screening various carbohydrate sources against the commensal and pathogenic bacteria codes listed in Table 1. The Bacteria Codes B, D, E, I, and J are commensal bacteria and are shaded in Table 2 for references purposes. The bacteria codes were each placed in a carbon microarray plate and screened through the Carbohydrate Screening Test Method, as described in the Test Methods section herein. If a particular bacteria code utilized a specific carbohydrate source as described in the Carbohydrate Screening Test Method, then the corresponding cell in Table 2 was marked with a Y (short for “Yes”). […] Many of the carbohydrate sources were utilized by both commensal and pathogenic bacteria, and as such, would not provide an advantage for selective growth of the commensal bacteria. However, some of the carbohydrate sources were only used by commensal bacteria and were identified for further testing as described herein.
(§3) The study employed 10 representative skin bacteria; Staphylococcus epidermidis ATCC 14990, Staphylococcus epidermidis M23864:W2, Staphylococcus aureus ATCC 6538, Staphylococcus aureus ATCC 25904 (Newman), Pseudomonas aeruginosa ATCC 9027, Micrococcus luteus ATCC […], Micrococcus luteus SK58, Klebsiella pneumoniae ATCC BAA-2146, Corynebacterium amycolatum SK46, and Corynebacterium minutissimum ATCC 23348. Cultures were started from freezer bead stocks by placing a single bead into 20 mL of tryptic soy broth (TSB) for all organisms except C. amycolatum SK46 and C. minutissimum ATCC 23348, which were placed into brain heart infusion (BHI) broth. Cultures were grown for about 24 hr at 37° C. except M. luteus ATCC 49732 and M. luteus SK58, which were grown at 30° C. A passage of the culture was made using a sterile swab and streaked onto two M9*2 agar plates to prepare the incubated culture for the phenotype microarray pate according to Table 4. Plates were incubated for about 24 hr at 37° C. except for M. luteus ATCC 49732 and M. luteus SK58, which were incubated at 30° C. for 24 hr.
(§4) All cultures were harvested and washed before inoculation into the carbon microarray plate (BiOLOG, Hayward Calif.), with Biolog Plates PM1 and PM2 each having a source definition of Carbon. The bacteria on the M9*2 agar was suspended via agitation with an inoculating loop in 1 mL of M9*1 media for collection in a 1.7 mL micro centrifuge tube, as noted in Table 4. The bacteria was suspended again in M9*1 media, agitated, and collected into the same 1.7 mL microcentrifuge tube used in the previous step. The tube was centrifuged for 5 minutes at 4,000×G, supernatant decanted, the pellet was resuspended in 1 mL of M9*1 media, and vortex. This washing process was repeated for a total of 4 times.
(§5) A tenfold dilution in M9*1 media was performed using 1 mL of the washed bacterial culture. Of the tenfold dilution 200 μL was placed in an untreated 96-well plate (Falcon, Pasadena Tx.) for an initial optical density (OD) reading at a wavelength of 600 nm. The OD was used to correlate to colony forming units (CFU) per milliliter by using linear regression lines for each organism. […]

[3] = test system: Micrococcus luteus (SK58); test: Carbohydrate Screening Test Method (Biolog phenotype microarray), Bacteria Code E; details: Commensal; carbon microarray plate, OD 600 nm, 36 hr, 33° C.; positive = more than 0.05 OD units above zero; blank cell = not utilized
In short: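 Each commensal strain grown in Biolog carbon phenotype microarray plates with single carbohydrate sources. Growth curves fitted with GrowthRates 2.1 to give growth rate and maximum yield. Max yields used to calculate predicted co-culture ratios between Corynebacterium, Staphylococcus and Micrococcus, compared with desired ratios of 1.3, 1.4 and 1.1.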

[4] = test system: Staphylococcus aureus (ATCC 6538); test: Carbohydrate Screening Test Method (Biolog phenotype microarray), Bacteria Code G; details: Pathogenic; carbon microarray plate, OD 600 nm, 36 hr, 33° C.; positive = more than 0.05 OD units above zero; blank cell = not utilized
Text: as §1, §2, §3, §4, §5

[5] = test system: Staphylococcus epidermidis (M23864:W2); test: Carbohydrate Screening Test Method (Biolog phenotype microarray), Bacteria Code J; details: Commensal; carbon microarray plate, OD 600 nm, 36 hr, 33° C.; positive = more than 0.05 OD units above zero; blank cell = not utilized
[6] = test system: Klebsiella pneumoniae (ATCC BAA-2146); details: Pathogenic; carbon microarray plate, OD 600 nm, 36 hr, 33° C.; positive = more than 0.05 OD units above zero; blank cell = not utilized
[7] = test system: Corynebacterium minutissimum (ATCC 23348); test: Carbohydrate Screening Test Method (Biolog phenotype microarray), Bacteria Code A; details: Pathogenic; carbon microarray plate, OD 600 nm, 36 hr, 33° C.; positive = more than 0.05 OD units above zero; blank cell = not utilized
Text: as §1, §2, §3, §4, §5

[8] = test system: Pseudomonas aeruginosa (ATCC 9027); details: Pathogenic; carbon microarray plate, OD 600 nm, 36 hr, 33° C.; positive = more than 0.05 OD units above zero; blank cell = not utilized
In short: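 Carbon-source utilisation screen on Biolog PM1/PM2 plates: strain grown in TSB then on M9*2 agar, each ~24 h at 37 °C, washed four times in M9*1 and diluted tenfold. OD600 correlated to CFU/mL; each carbohydrate scored Yes when utilised.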

[9] = test system: Staphylococcus epidermidis (ATCC 14990); test: Carbohydrate Screening Test Method (Biolog phenotype microarray), Bacteria Code I; details: Commensal; carbon microarray plate, OD 600 nm, 36 hr, 33° C.; positive = more than 0.05 OD units above zero; blank cell = not utilized
In short: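 Staphylococcus epidermidis ATCC 14990, a commensal skin bacterium, was grown from a freezer bead in 20 mL tryptic soy broth for about 24 hr at 37° C. It was then streaked onto M9*2 agar and incubated a further 24 hr at 37° C. Cells were harvested, resuspended in M9*1 media, centrifuged 5 minutes at 4,000×G and washed 4 times.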

O=C(CO)[C@@H](O)[C@H](O)[C@H](O)CO [D-Fructose]
Y: Carbohydrate Screening Results, Bacteria Code B [1] | Carbohydrate Screening Results, Bacteria Code H [2] | Carbohydrate Screening Results, Bacteria Code E [3] | Carbohydrate Screening Results, Bacteria Code G [4] | Carbohydrate Screening Results, Bacteria Code J [5] | Carbohydrate Screening Results, Bacteria Code C [6] | Carbohydrate Screening Results, Bacteria Code A [7]

O=C[C@@H](O)[C@@H](O)[C@H](O)[C@H](O)CO [D-Mannose]
Y: Carbohydrate Screening Results, Bacteria Code B [1] | Carbohydrate Screening Results, Bacteria Code H [2] | Carbohydrate Screening Results, Bacteria Code E [3] | Carbohydrate Screening Results, Bacteria Code G [4] | Carbohydrate Screening Results, Bacteria Code C [6] | Carbohydrate Screening Results, Bacteria Code A [7]

OC[C@H]1O[C@H](O)[C@H](O)[C@@H](O)[C@@H]1O [α-D-Glucose]
Y: Carbohydrate Screening Results, Bacteria Code F [8] | Carbohydrate Screening Results, Bacteria Code B [1] | Carbohydrate Screening Results, Bacteria Code H [2] | Carbohydrate Screening Results, Bacteria Code E [3] | Carbohydrate Screening Results, Bacteria Code I [9] | Carbohydrate Screening Results, Bacteria Code G [4] | Carbohydrate Screening Results, Bacteria Code J [5] | Carbohydrate Screening Results, Bacteria Code C [6] | Carbohydrate Screening Results, Bacteria Code A [7]
